Key:
Format in all cases: cell-based
[1] = tested on: colistin resistant MCR (+) E. Coli strains; test: MIC, broth microdilution, compound alone; settings: compound alone
In short: (§1)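 Wells held ~5×10^5 CFU/mL of bacteria prepared to 0.5 McFarland from overnight TSA colonies and exposed to serially diluted agents, following modified CLSI microdilution. After 24 h at 35 °C, growth judged by turbidity (OD600 possible); 99% inhibition sets the MIC.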

[2] = tested on: colistin resistant MCR (−) E. Cloacae strain 7023456439; test: MIC, broth microdilution, compound alone; settings: strain 7023456439 E. Cloacae
In short: as §1

[3] = tested on: colistin resistant MCR (−) E. Coli strains; test: MIC, broth microdilution, compound alone
In short: as §1

[4] = tested on: colistin resistant MCR (+) E. Coli strains; test: Synergy study: colistin MIC in the presence of compound
In short: (§2)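 After 24 hours, MIC was read as the lowest concentration without visible growth. Drugs were tested singly and in combination by CLSI broth microdilution, equal-amount colistin:LC compound mixtures serially diluted 2-fold at a fixed synergy concentration.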

[5] = tested on: colistin resistant MCR (−) E. Cloacae strain 7023456439; test: as above; settings: strain 7023456439 E. Cloacae
In short: as §2

[6] = tested on: colistin resistant MCR (−) E. Coli strains; test: as above
In short: as §2

[7] = strain 7028444207 (Table 1b), MCR (+)
[8] = strain 6083655967, MCR(+), compound at 10 μg (Table 2a: 10 ug/ml)
[9] = strain 7023444207, MCR(+), compound at 10 μg (Table 2a: 10 ug/ml)
[10] = compound at 5 μg (Table 2a: 5 ug/ml)
[11] = compound at 10 μg (Table 2a: 10 ug/ml)
[12] = strain 6083672926, MCR(−), compound at 5 μg (Table 2a: 5 ug/ml)
[13] = strain 6083672926, MCR(−), compound at 10 μg (Table 2a: 10 ug/ml)
[14] = strain 7023446108, MCR(−), compound at 5 μg (Table 2a: 5 ug/ml)
[15] = strain 7023446108, MCR(−), compound at 10 μg (Table 2a: 10 ug/ml)
[16] = strain 7033607097, MCR(−), compound at 5 μg (Table 2a: 5 ug/ml)
[17] = strain 7033607097, MCR(−), compound at 10 μg (Table 2a: 10 ug/ml)
[18] = strain 6075066346, MCR(+), compound at 10 μg (Table 2a: 10 ug/ml)
[19] = strain 6103645107, MCR(+), compound at 10 μg (Table 2a: 10 ug/ml)
[20] = strain 6123520276, MCR(+), compound at 10 μg (Table 2a: 10 ug/ml)
[21] = strain 7013177695, MCR(+), compound at 10 μg (Table 2a: 10 ug/ml)
[22] = strain 7023436560, MCR(+), compound at 10 μg (Table 2a: 10 ug/ml)
[23] = strain 6075066346, MCR(+), compound at 2 μg
[24] = strain 6083655967, MCR(+), compound at 2 μg
[25] = strain 6103645107, MCR(+), compound at 2 μg
[26] = strain 6123520276, MCR(+), compound at 2 μg
[27] = strain 7013177695, MCR(+), compound at 2 μg
[28] = strain 7023436560, MCR(+), compound at 2 μg
[29] = strain 7023444207, MCR(+), compound at 2 μg
[30] = strain 6083672926, MCR(−), compound at 2 μg
[31] = strain 7023446108, MCR(−), compound at 2 μg
[32] = strain 7033607097, MCR(−), compound at 2 μg

Row | Structure (SMILES) | MIC ([1]; strain 6075066346, MCR (+)) [µg/mL] | MIC ([1]; strain 6083655967, MCR (+)) [µg/mL] | MIC ([1]; strain 6103645107, MCR (+)) [µg/mL] | MIC ([1]; strain 6123520276, MCR (+)) [µg/mL] | MIC ([1]; strain 7013177695, MCR (+)) [µg/mL] | MIC ([1]; strain 7023436560, MCR (+)) [µg/mL] | MIC [1, 7] [µg/mL] | MIC [2] [µg/mL] | MIC ([3]; strain 6083672926, MCR (−)) [µg/mL] | MIC ([3]; strain 7023446108, MCR (−)) [µg/mL] | MIC ([3]; strain 7033607097, MCR (−)) [µg/mL] | Colistin MIC in the presence of the compound [4, 8] [µg/mL] | Colistin MIC in the presence of the compound [4, 9] [µg/mL] | Colistin MIC in the presence of the compound [5, 11] [µg/mL] | Colistin MIC in the presence of the compound [6, 13] [µg/mL] | Colistin MIC in the presence of the compound [6, 15] [µg/mL] | Colistin MIC in the presence of the compound [6, 17] [µg/mL] | Colistin MIC in the presence of the compound [4, 24] [µg/mL] | Colistin MIC in the presence of the compound [4, 25] [µg/mL] | MIC ([1]; strain 7023444207, MCR (+)) [µg/mL] | further results
1 | O=C(C=Cc1ccc(OCCCCN2CCNCCNCCNCC2)cc1)c1ccc(OCCCCN2CCNCCNCCNCC2)cc1O.[Cl][Zn][Cl].[Cl][Zn][Cl] [LC304] | >50 | >50 | >50 | >50 | >50 | >50 | >50 | >50 | >50 | >50 | >50 | 1.56 | 1.56 | >12.5 | 12.5 | 3.125 | 3.125 | – | – | – | Colistin MIC in the presence of the compound [5, 10]: >12.5 µg/mL; Colistin MIC in the presence of the compound [6, 12]: 12.5 µg/mL; Colistin MIC in the presence of the compound [6, 14]: 3.125 µg/mL; Colistin MIC in the presence of the compound [6, 16]: 3.125 µg/mL
2 | Cc1cc(OCCCCC[N+](C)(C)C)cc(OCCCCC[N+](C)(C)C)c1 [LC310] | >50 | >50 | >50 | >50 | >50 | >50 | >50 | >50 | >50 | >50 | >50 | 6.25 | 6.25 | 6.25 | 6.25 | 6.25 | 6.25 | – | – | – | Colistin MIC in the presence of the compound [4, 18]: 6.25 µg/mL; Colistin MIC in the presence of the compound [4, 19]: 6.25 µg/mL; Colistin MIC in the presence of the compound [4, 20]: 6.25 µg/mL; Colistin MIC in the presence of the compound [4, 21]: 6.25 µg/mL; Colistin MIC in the presence of the compound [4, 22]: 6.25 µg/mL
3 | CC(C)=CCc1c(OCCCCC[N+](C)(C)C)ccc(C(=O)/C=C/c2ccc(OCCCCC[N+](C)(C)C)cc2)c1O [LC311] | 3.125 | 3.125 | 3.125 | 6.25 | 6.25 | 3.125 | 3.125 | 6.25 | 3.125 | 3.125 | 6.25 | – | – | – | – | – | – | 0.39 | 0.39 | – | Colistin MIC in the presence of the compound [4, 23]: 0.78 µg/mL; Colistin MIC in the presence of the compound [4, 26]: 0.39 µg/mL; Colistin MIC in the presence of the compound [4, 27]: 0.78 µg/mL; Colistin MIC in the presence of the compound [4, 28]: 0.39 µg/mL; Colistin MIC in the presence of the compound [4, 29]: 0.39 µg/mL; Colistin MIC in the presence of the compound ([5]; compound at 2 μg): >12.5 µg/mL; Colistin MIC in the presence of the compound [6, 30]: 0.39 µg/mL; Colistin MIC in the presence of the compound [6, 31]: 0.78 µg/mL; Colistin MIC in the presence of the compound [6, 32]: 0.195 µg/mL
4 | CC1(C)C=Cc2c(ccc3c2OCC(c2ccc(OCCCCC[N+](C)(C)C)cc2OCCCCC[N+](C)(C)C)C3)O1 (stereo not drawn) [LC316] | 50 | 50 | 50 | 50 | 50 | 50 | – | >50 | >50 | 50 | >50 | – | – | – | – | – | – | – | – | 50 | Colistin MIC in the presence of the compound ([4]; strain 6075066346, MCR(+), compound at 5 μg (Table 2a: 5 ug/ml)): 1.55 µg/mL; Colistin MIC in the presence of the compound [5, 10]: >12.5 µg/mL; Colistin MIC in the presence of the compound [6, 12]: 6.25 µg/mL; Colistin MIC in the presence of the compound [6, 14]: 1.56 µg/mL; Colistin MIC in the presence of the compound [6, 16]: 1.56 µg/mL
5 | CC(C)=CCc1c(OCCCC[n+]2ccn(C)c2)ccc(C(=O)/C=C/c2ccc(OCCCC[n+]3ccn(C)c3)cc2)c1O [LC350] | 3.125 | 3.125 | 3.125 | 3.125 | 3.125 | 3.125 | – | >50 | 3.125 | 3.125 | 3.125 | – | – | – | – | – | – | 0.195 | 0.195 | 3.125 | Colistin MIC in the presence of the compound [4, 23]: 0.195 µg/mL; Colistin MIC in the presence of the compound [4, 26]: 0.195 µg/mL; Colistin MIC in the presence of the compound [4, 27]: 0.195 µg/mL; Colistin MIC in the presence of the compound [4, 28]: 0.195 µg/mL; Colistin MIC in the presence of the compound [4, 29]: 0.195 µg/mL; Colistin MIC in the presence of the compound ([5]; compound at 2 μg): >12.5 µg/mL; Colistin MIC in the presence of the compound [6, 30]: 0.195 µg/mL; Colistin MIC in the presence of the compound [6, 31]: 0.195 µg/mL; Colistin MIC in the presence of the compound [6, 32]: 0.195 µg/mL
6 | CC(C)=CCc1c(OCCCC[n+]2ccccc2)ccc(C(=O)/C=C/c2ccc(OCCCC[n+]3ccccc3)cc2)c1O [LC365] | 3.125 | 3.125 | 3.125 | 3.125 | 3.125 | 3.125 | – | >50 | 3.125 | 3.125 | 3.125 | – | – | – | – | – | – | 0.39 | 0.39 | 3.125 | Colistin MIC in the presence of the compound [4, 26]: 0.39 µg/mL; Colistin MIC in the presence of the compound [4, 29]: 0.39 µg/mL; Colistin MIC in the presence of the compound ([5]; compound at 2 μg): >12.5 µg/mL; Colistin MIC in the presence of the compound [6, 30]: 0.195 µg/mL; Colistin MIC in the presence of the compound [6, 31]: 0.195 µg/mL; Colistin MIC in the presence of the compound [6, 32]: 0.195 µg/mL
7 | CC1(C)C=Cc2c(ccc3c2OCC(c2ccc(OCCCC[n+]4ccccc4)cc2OCCCC[n+]2ccccc2)C3)O1 (stereo not drawn) [LC370] | 50 | 50 | 50 | 50 | 50 | 50 | – | >50 | 25 | 25 | 25 | 0.39 | 0.195 | >12.5 | >12.5 | 0.195 | 0.195 | – | – | 50 | Colistin MIC in the presence of the compound [4, 18]: 0.195 µg/mL; Colistin MIC in the presence of the compound [4, 19]: 0.195 µg/mL; Colistin MIC in the presence of the compound [4, 20]: 0.195 µg/mL; Colistin MIC in the presence of the compound [4, 21]: 0.195 µg/mL; Colistin MIC in the presence of the compound [4, 22]: 0.195 µg/mL

— US12473250B2, “Molecular design of new antibiotics and antibiotic adjuvants against MCR strains” (priority 2019, dated 2025)
